Data from ChEMBL document CHEMBL3259577, “Antagonists of the kappa opioid receptor” (Bioorg Med Chem Lett, 2014).
Each block holds one molecule with its values, some of them ahead of it. Peptide text beside a SMILES is read from it.

Tests used:
[1] = target: T1, Kappa-type opioid receptor (Homo sapiens, UniProt P41145); assay: Antagonist activity at human cloned kappa opioid receptor expressed in CHO cells assessed as inhibition of Dynorphin A-stimulated [35S]-GTP[gammaS] binding; type: functional, cell-based
Mu-type opioid receptor [2] = target: T2, Mu-type opioid receptor (Homo sapiens, UniProt P35372); assay: Antagonist activity at human cloned mu opioid receptor expressed in CHO cells assessed as inhibition of DAMGO-stimulated [35S]-GTP[gammaS] binding; type: cell-based
Mus musculus = species: Mus musculus; assay: Antinociceptive activity in mouse assessed as reversal of U50488-induced withdrawl latencies; type: functional
[3] = target: T3, Delta-type opioid receptor (Homo sapiens, UniProt P41143); assay: Inhibition of delta opioid receptor (unknown origin) using SNC-80 by high content imaging beta-arrestin translocation assay
Mu-type opioid receptor [4] = target: T2, Mu-type opioid receptor; assay: Inhibition of mu opioid receptor (unknown origin) using DAMGO by high content imaging beta-arrestin translocation assay
[5] = target: T1, Kappa-type opioid receptor; assay: Inhibition of kappa opioid receptor (unknown origin) using dynorphin A by DiscoveryRx b-arrestin PathHunter assay
Cavia porcellus = species: Cavia porcellus; assay: Antagonist activity at delta opioid receptor in guinea pig caudate assessed as inhibition of SNC-80-stimulated [35S]-GTP[gammaS] binding
Rattus norvegicus = assay: Reduction in spiradoline-induced sc dosed rat plasma prolactin levels; type: functional; conditions: read-out: ID50 (the source's name)
[6] = target: Kappa-type opioid receptor (Rattus norvegicus) (UniProt P34975); assay: Displacement of [3H]CI977 from rat forebrain OPRK assessed as maximal binding after 30 mins
[7] = target: Mu-type opioid receptor (Rattus norvegicus) (UniProt P33535); assay: Displacement of [3H]DAMGO from rat forebrain OPRM
[8] = target: Kappa-type opioid receptor (Rattus norvegicus) (UniProt P34975); assay: Displacement of [3H]CI977 from rat forebrain OPRK
CHO [9] = assay: Selectivity ratio of Ki for mu opioid receptor (unknown origin) expressed in CHO cell membranes to Ki for kappa opioid receptor (unknown origin) expressed in CHO cell membranes; type: cell-based; conditions: Homo sapiens
CHO [10] = assay: Selectivity ratio of Ki for delta opioid receptor (unknown origin) expressed in CHO cell membranes to Ki for kappa opioid receptor (unknown origin) expressed in CHO cell membranes; type: cell-based; conditions: Homo sapiens
[11] = target: T1, Kappa-type opioid receptor; assay: Inhibition of kappa opioid receptor (unknown origin) using dynorphin A by high content imaging beta-arrestin translocation assay
Mu-type opioid receptor [12] = target: T2, Mu-type opioid receptor; assay: Displacement of [3H]diprenorphine from mu opioid receptor (unknown origin) expressed in CHO cells membranes; type: cell membranes
[13] = target: T3, Delta-type opioid receptor; assay: Displacement of [3H]diprenorphine from delta opioid receptor (unknown origin) expressed in CHO cells membranes; type: cell membranes
[14] = target: Kappa-type opioid receptor (Cavia porcellus, UniProt P41144); assay: Antagonist activity at kappa opioid receptor in guinea pig ileum assessed as inhibition of U50488-stimulated [35S]-GTP[gammaS] binding; type: functional, tissue-based; conditions: read-out: pA2 (converted)
[15] = target: T1, Kappa-type opioid receptor; assay: Displacement of [3H]diprenorphine from kappa opioid receptor (unknown origin) expressed in CHO cells membranes; type: cell membranes
Mu-type opioid receptor [16] = target: Mu-type opioid receptor (Cavia porcellus, UniProt P97266); assay: Antagonist activity at mu opioid receptor in guinea pig ileum assessed as inhibition of DAMGO-stimulated [35S]-GTP[gammaS] binding; type: functional, tissue-based; conditions: read-out: pA2 (converted)
Mu-type opioid receptor (Cavia porcellus, UniProt P97266), sequence (P97266 whole entry): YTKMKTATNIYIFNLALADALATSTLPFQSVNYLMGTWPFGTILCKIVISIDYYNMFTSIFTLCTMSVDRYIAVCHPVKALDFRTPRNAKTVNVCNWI

T2 sequence (P35372 whole entry): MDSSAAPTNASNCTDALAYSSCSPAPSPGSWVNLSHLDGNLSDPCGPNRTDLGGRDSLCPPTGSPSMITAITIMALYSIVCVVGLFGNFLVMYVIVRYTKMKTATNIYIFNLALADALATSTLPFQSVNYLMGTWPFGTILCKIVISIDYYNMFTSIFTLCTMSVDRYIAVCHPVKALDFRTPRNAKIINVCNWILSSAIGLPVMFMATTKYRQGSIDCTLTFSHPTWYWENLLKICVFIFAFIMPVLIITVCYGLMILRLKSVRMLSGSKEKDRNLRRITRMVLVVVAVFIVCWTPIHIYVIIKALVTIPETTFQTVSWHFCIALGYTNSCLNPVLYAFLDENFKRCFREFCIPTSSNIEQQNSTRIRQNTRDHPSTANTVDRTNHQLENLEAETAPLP
T3 sequence (P41143 whole entry): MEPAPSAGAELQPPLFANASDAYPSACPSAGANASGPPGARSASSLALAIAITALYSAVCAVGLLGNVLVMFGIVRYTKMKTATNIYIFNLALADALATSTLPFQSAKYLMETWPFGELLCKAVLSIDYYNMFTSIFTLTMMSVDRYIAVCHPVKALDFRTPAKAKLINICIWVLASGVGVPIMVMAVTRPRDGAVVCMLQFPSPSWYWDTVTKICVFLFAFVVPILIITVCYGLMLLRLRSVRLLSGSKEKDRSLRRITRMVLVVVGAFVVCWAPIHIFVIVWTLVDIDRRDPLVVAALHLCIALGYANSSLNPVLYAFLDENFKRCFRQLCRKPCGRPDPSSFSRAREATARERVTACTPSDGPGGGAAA
T1 sequence (P41145 whole entry): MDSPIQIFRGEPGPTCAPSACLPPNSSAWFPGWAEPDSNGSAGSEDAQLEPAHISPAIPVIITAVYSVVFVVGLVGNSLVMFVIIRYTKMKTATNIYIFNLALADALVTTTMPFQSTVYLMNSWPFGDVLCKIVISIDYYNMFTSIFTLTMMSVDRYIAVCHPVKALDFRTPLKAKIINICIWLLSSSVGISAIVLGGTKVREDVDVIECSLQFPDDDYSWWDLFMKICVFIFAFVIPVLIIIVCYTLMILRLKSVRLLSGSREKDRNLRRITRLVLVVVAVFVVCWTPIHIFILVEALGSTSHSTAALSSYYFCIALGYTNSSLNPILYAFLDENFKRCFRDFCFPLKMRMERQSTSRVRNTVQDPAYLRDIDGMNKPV
Kappa-type opioid receptor (Rattus norvegicus), sequence (P34975 whole entry): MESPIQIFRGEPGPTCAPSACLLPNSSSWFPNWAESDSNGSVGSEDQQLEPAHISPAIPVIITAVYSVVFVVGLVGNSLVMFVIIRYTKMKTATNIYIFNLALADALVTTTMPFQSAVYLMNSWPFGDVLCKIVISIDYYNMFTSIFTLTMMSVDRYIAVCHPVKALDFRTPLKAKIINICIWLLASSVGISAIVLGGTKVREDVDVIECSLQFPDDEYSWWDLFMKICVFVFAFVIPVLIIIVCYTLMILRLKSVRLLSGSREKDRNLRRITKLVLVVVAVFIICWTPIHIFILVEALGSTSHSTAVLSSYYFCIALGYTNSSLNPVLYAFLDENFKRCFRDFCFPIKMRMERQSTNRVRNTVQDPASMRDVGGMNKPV
Kappa-type opioid receptor (Cavia porcellus, UniProt P41144), sequence (P41144 whole entry): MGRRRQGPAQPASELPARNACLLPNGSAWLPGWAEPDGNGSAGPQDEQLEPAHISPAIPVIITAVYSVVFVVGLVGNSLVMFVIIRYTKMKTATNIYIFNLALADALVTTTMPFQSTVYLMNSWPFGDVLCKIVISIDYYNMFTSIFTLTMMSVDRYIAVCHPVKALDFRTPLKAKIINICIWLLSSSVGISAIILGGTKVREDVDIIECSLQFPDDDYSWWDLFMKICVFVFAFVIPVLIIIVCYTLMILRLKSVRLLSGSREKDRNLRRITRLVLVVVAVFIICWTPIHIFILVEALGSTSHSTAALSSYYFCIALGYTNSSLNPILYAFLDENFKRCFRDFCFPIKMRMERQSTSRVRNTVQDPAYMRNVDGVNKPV
Mu-type opioid receptor (Rattus norvegicus), sequence (P33535 whole entry): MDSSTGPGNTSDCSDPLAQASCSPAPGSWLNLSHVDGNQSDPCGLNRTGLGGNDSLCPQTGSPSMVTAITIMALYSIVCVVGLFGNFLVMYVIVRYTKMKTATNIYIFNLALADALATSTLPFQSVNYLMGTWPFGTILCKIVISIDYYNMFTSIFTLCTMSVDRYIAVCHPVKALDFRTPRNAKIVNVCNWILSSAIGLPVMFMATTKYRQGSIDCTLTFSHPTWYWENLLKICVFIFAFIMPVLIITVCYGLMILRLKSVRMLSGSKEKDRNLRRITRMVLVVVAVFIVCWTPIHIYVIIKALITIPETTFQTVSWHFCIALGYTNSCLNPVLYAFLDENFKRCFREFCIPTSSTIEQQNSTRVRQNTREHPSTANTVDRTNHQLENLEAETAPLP

SMILES: C[C@@H]1NC(=O)[C@H](Cc2c[nH]c3ccccc23)NC(=O)[C@H](Cc2ccccc2)NC(=O)[C@@H]2CCCN2C1=O (cyclo(APFW))
Kb [1]: 2.6 nM | Ke (Mu-type opioid receptor [2]): 7.3 nM | Time (Mus musculus): <18 h

SMILES: O=C1N[C@@H](Cc2ccccc2)C(=O)N2CCC[C@H]2C(=O)N[C@@H](Cc2ccccc2)C(=O)N[C@H]1Cc1c[nH]c2ccccc12 (cyclo(FPFW))
Kb [1]: 65.2 nM | Kb (Mu-type opioid receptor [2]): 10.2 nM | Time (Mus musculus): >24 h

IC50 [3]: > 32000 nM
SMILES: CCN(CCNC(=O)c1ccc(CNS(=O)(=O)c2ccc(C)cc2)cc1)Cc1ccccc1

IC50 [3]: > 32000 nM | IC50 (Mu-type opioid receptor [4]): > 32000 nM | IC50 [5]: 1120 nM
SMILES: CCc1ccc(S(=O)(=O)NCc2ccc(C(=O)NCCN(Cc3ccccc3)C(C)C)cc2)cc1

SMILES: CC(C)[C@@H](CN1CC[C@@](C)(c2cccc(O)c2)[C@@H](C)C1)NC(=O)[C@@H]1Cc2ccc(O)cc2CN1
Ke (Cavia porcellus): 327 nM

SMILES: CC(C)CNCc1ccc(-c2ccccc2S(=O)(=O)N2CCCC2)cc1 [PF-04455242]
ED50 (Rattus norvegicus): 2.3 mg/kg | Activity [6]: 82% | ID50 [7]: 8.6 mg/kg | ID50 [8]: 2 mg/kg

SMILES: CC[C@H](C)[C@@H]1NC(=O)[C@H](CCCNC(=N)N)NC(=O)[C@@H](NC(=O)[C@H](Cc2ccccc2)NC(=O)CNC(=O)CNC(=O)[C@H](Cc2ccc(O)cc2)NCc2ccccc2)CC(=O)NC[C@@H](C(=O)N[C@@H](CCCNC(=N)N)C(=O)N2CCC[C@H]2C(=O)N[C@@H](CCCCN)C(N)=O)NC1=O
Ratio Ki (CHO [9]): 194 | Ratio Ki (CHO [10]): > 330

IC50 [3]: > 32000 nM | IC50 (Mu-type opioid receptor [4]): > 32000 nM
SMILES: Cc1ccc(S(=O)(=O)NCc2ccc(C(=O)NCCN(Cc3ccc(Br)cc3)C(C)C)cc2)cc1

IC50 [3]: > 32000 nM | IC50 [11]: > 32000 nM | IC50 (Mu-type opioid receptor [4]): > 32000 nM | IC50 [5]: > 20000 nM
SMILES: Cc1ccc(S(=O)(=O)NCc2ccc(C(=O)NCCCN(Cc3ccccc3)C(C)C)cc2)cc1

SMILES: CC(C)[C@@H](CN1CC[C@@](C)(c2cccc(O)c2)[C@@H](C)C1)NC(=O)[C@@H](N)Cc1ccc(O)cc1
Ke (Cavia porcellus): 452 nM

SMILES: CC(=O)N1Cc2cc(O)ccc2C[C@@H]1C(=O)N[C@H](CN1CC[C@@](C)(c2cccc(O)c2)[C@@H](C)C1)C(C)C
Ke (Cavia porcellus): > 300 nM

SMILES: CCOC(=O)C(CN1CC[C@@](C)(c2cccc(O)c2)[C@@H](C)C1)OC(=O)[C@H]1Cc2ccc(O)cc2CN1 (stereo partly specified)
Ki (Mu-type opioid receptor [12]): 26.5 nM | Ki [13]: 1060 nM | Kb [14]: 2.4 nM | Ki [15]: 1.72 nM | Kb (Mu-type opioid receptor [16]): < 5010 nM

IC50 [3]: > 32000 nM | IC50 [11]: 4 nM | IC50 [5]: 190 nM
SMILES: COc1ccc(N2CCN(CCCNC(=O)Cn3c(=O)c4cccn4c4c(C)ccnc43)CC2)c(OC)c1

IC50 [3]: > 32000 nM | IC50 [11]: 1300 nM | IC50 (Mu-type opioid receptor [4]): > 32000 nM | IC50 [5]: 1950 nM
SMILES: COc1ccc(N2CCN(CCCNC(=O)Cn3c(=O)c4cccn4c4cccnc43)CC2)cc1

IC50 [3]: > 32000 nM | IC50 (Mu-type opioid receptor [4]): > 32000 nM | IC50 [5]: 690 nM
SMILES: Cc1ccnc2c1n1cccc1c(=O)n2CC(=O)NCCCN1CCN(c2ccc(Cl)cc2)CC1

SMILES: CC(C)[C@@H](CN1CC[C@@](C)(c2cccc(O)c2)[C@@H](C)C1)NC(=O)[C@H]1Cc2ccc(O)cc2CN1C
Ke (Cavia porcellus): > 300 nM
